Measured values: ChEMBL document CHEMBL1146652, “Synthesis and CB1 receptor activities of novel arachidonyl alcohol derivatives” (Bioorg Med Chem Lett, 2004)
pEC50: −log10 of the molar value.

Columns and labels:
[1] = target: Cannabinoid receptor 1 (Rattus norvegicus) (UniProt P20272); experiment: Maximal response of cannabinoid receptor to compound was evaluated using [35S]GTP-gamma-S-binding studies; type: functional
[2] = target: Cannabinoid receptor 1 (Rattus norvegicus, UniProt P20272); experiment: Cannabinoid receptor 1 dependent activity of compound was evaluated by using [35S]GTP-gamma-S-binding studies; type: functional
Chain of Cannabinoid receptor 1 (P20272 whole entry): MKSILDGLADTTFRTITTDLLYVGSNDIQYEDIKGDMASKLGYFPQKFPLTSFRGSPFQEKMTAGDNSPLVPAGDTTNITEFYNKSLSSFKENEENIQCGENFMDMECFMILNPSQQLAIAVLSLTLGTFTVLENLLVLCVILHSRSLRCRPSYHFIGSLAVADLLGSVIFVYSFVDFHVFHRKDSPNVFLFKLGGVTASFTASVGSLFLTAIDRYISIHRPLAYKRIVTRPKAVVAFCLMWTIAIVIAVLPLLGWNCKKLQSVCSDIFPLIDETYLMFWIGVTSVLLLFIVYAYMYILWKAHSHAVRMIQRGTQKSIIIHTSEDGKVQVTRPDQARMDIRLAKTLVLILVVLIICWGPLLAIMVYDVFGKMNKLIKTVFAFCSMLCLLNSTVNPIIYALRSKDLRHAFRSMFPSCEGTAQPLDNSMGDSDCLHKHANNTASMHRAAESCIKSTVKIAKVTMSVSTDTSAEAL

Chain of Cannabinoid receptor 1 (Rattus norvegicus) (P20272 whole entry): as above

| SMILES | Emax [1] | pEC50 [2] |
| --- | --- | --- |
| CCCCC/C=C\C/C=C\C/C=C\C/C=C\CCCCOC(=O)[C@@H](O)CO | 278% | 4.40 |
| CCCCC/C=C\C/C=C\C/C=C\C/C=C\CCCCOC(=O)[C@H](O)CO | 301% | 4.60 |
| CCCCC/C=C\C/C=C\C/C=C\C/C=C\CCCC(=O)NCCO | 380% |  |
